Strand notation (5' to 3'): a small letter for the sugar, then the base; units joined by * are phosphorothioate-linked, units joined directly phosphodiester-linked; [ ] holds rarer units or linkages, { } end groups; capitals alone tell only the bases. e = 2'-O-(2-methoxyethyl) (MOE); k = constrained ethyl (cEt); [5mC] = 5-methylcytosine; d = 2'-deoxy (DNA)

What is called % Inhibition is how much of the control response was suppressed. A high value points to a response far below the control. The term IC50 denotes the concentration that inhibits the measured activity by half. A higher IC50 goes with lower potency.

Format in all cases: cell-based
Series [1] has as its system human SMAD7 mRNA. The series can be described thus: Antisense inhibition of human SMAD7 mRNA expression in Hep3B cells by 5-10-5 MOE gapmers, single concentration, electroporation, RT-PCR (Example 1, Study 1 and 2). The conditions noted are these: for % Inhibition: Study 2, electroporation with 15,000 nM antisense oligonucleotide. The method, then:
Antisense oligonucleotides were designed to target human SMAD7 mRNA and were tested for their effects on SMAD7 mRNA expression in vitro. Cultured Hep3B cells at a density of 20,000 cells per well were transfected using electroporation with antisense oligonucleotide ION 483663 (a 5-10-5 MOE gapmer), the sequence of which overlaps with ION 28453 (a 4-10-4 MOE gapmer) was included in these assays for comparison. ION 28453 has been previously disclosed in U.S. Pat. No. 6,159,697). After a treatment period of approximately 24 hours, RNA was isolated from the cells and SMAD7 mRNA levels were measured by quantitative real-time PCR. Primer probe set RTS5062 (forward sequence […], designated herein as SEQ ID NO: 11; reverse sequence […], designated herein as SEQ ID NO: 12; probe sequence […], designated herein as SEQ ID NO: 13) was used to measure human SMAD7 mRNA levels. SMAD7 mRNA levels were adjusted according to total RNA content, as measured by RIBOGREEN®. Results are presented as percent inhibition of SMAD7 mRNA expression, relative to untreated control cells.
The newly designed chimeric antisense oligonucleotides in the Tables below were designed as 5-10-5 MOE gapmers. The gapmers are 20 nucleosides in length, wherein the central gap segment comprises of ten 2′-deoxynucleosides and is flanked by wing segments on the 5′ direction and the 3′ direction comprising five nucleosides each. Each nucleoside in the 5′ wing segment and each nucleoside in the 3′ wing segment has a 2′-MOE modification. The internucleoside linkages throughout each gapmer are phosphorothioate (P═S) linkages. All cytosine residues throughout each gapmer are 5-methylcytosines.
“Start site” indicates the 5′-most nucleoside to which the gapmer is targeted in the human gene sequence. “Stop site” indicates the 3′-most nucleoside to which the gapmer is targeted human gene sequence.
Cultured Hep3B cells at a density of 20,000 cells per well were transfected using electroporation with 5,000 nM antisense oligonucleotide.
Cultured Hep3B cells at a density of 20,000 cells per well were transfected using electroporation with 15,000 nM antisense oligonucleotide. The antisense oligonucleotides were tested in a series of experiments that had similar culture conditions as described below.
Some of the oligonucleotides presented were complementary to SMAD7 mRNA sequences RefSeqNo. NM_001190821.1 (designated herein as SEQ ID NO: 3) or RefSeqNo. NM_001190822.1 (designated herein as SEQ ID NO: 4), and are presented in a separate table shown below.

Series [2] has as its system human SMAD7 mRNA. The experiment in a line: Antisense inhibition of human SMAD7 mRNA expression in Hep3B cells by 3-10-3 cEt gapmers, 10,000 nM, electroporation (Example 2). To be noted: Hep3B cells, electroporation with 10,000 nM antisense oligonucleotide, approximately 24 hours, SMAD7 mRNA by RT-PCR (RTS5062), relative to untreated control cells. Put shortly:
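Hep3B cells (20,000 per well) were electroporated with 10,000 nM 16-mer 3-10-3 cEt gapmer (phosphorothioate, 5-methylcytosine). After about 24 h, SMAD7 mRNA was quantified by qRT-PCR with primer probe set RTS5062, normalised to RIBOGREEN total RNA, and expressed as percent inhibition versus untreated cells.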

For series [3], the system named is human SMAD7 mRNA. The experiment in a line: Dose-dependent inhibition of human SMAD7 mRNA expression in Hep3B cells (Example 3, Study 1 and 2). To be noted: electroporation; for % inhibition of SMAD7 mRNA expression: approximately 16 hours; for IC50: Study 2 (740-20000 nM). The essentials:
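Hep3B cells, 20,000 per well, electroporated with antisense oligonucleotide at 0.31, 1.25, 5.00 or 20.00 μM (first series) or 0.74, 2.22, 6.67 or 20.00 μM (second series). After ~16 h, SMAD7 mRNA measured by RT-qPCR (RTS5062), normalised to RIBOGREEN total RNA. Percent inhibition vs untreated cells; IC50 derived.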

[4] abbreviates: 5-10-5 MOE gapmers targeting SEQ ID NO: 1 and 2.
Where [5] appears, read: electroporation, 15,000 nM antisense oligonucleotide (Study 2), 5-10-5 MOE gapmers targeting SEQ ID NO: 1 and 2.
The mark [6] stands for this setting: 740 nM, Study 2, relative to untreated control cells.

“771352 (antisense eT*e[5mC]*e[5mC]*eA*eA*d[5mC]*dT*d[5mC]*dT*d[5mC]*dT*dT*dT*dG*d[5mC]*e[5mC]*e[5mC]*e[5mC]*eA*eA) [compound 771352]”: in the series with human SMAD7 mRNA [1] (electroporation, 15,000 nM, approximately 24 hours, relative to untreated control cells, gapmers targeting SEQ ID NO: 1 and 2), the “% inhibition of SMAD7 mRNA expression” value is 54%.

“771353 (antisense eT*eT*e[5mC]*e[5mC]*eA*dT*d[5mC]*d[5mC]*dA*dA*d[5mC]*dT*d[5mC]*dT*d[5mC]*eT*eT*eT*eG*e[5mC]) [compound 771353]”: the “% Inhibition” value in the series on human SMAD7 mRNA [1] (setting [4]) was 0%.

Consider “771354 (antisense e[5mC]*eG*eG*e[5mC]*e[5mC]*dT*dT*d[5mC]*d[5mC]*dA*dT*d[5mC]*d[5mC]*dA*dA*e[5mC]*eT*e[5mC]*eT*e[5mC]) [compound 771354]”, for which the “% Inhibition” value in the series on human SMAD7 mRNA [1] (setting [4]) was determined as 39%.

With “771355 (antisense e[5mC]*eA*eG*eT*eT*d[5mC]*dG*dG*d[5mC]*d[5mC]*dT*dT*d[5mC]*d[5mC]*dA*eT*e[5mC]*e[5mC]*eA*eA) [compound 771355]”, the “% Inhibition of SMAD7 mRNA” value in the series on human SMAD7 mRNA [1] (electroporation with 15,000 nM antisense oligonucleotide (Study 2), 5-10-5 MOE gapmers targeting SEQ ID NO: 1 and 2) is 13%. Further, the “% inhibition of SMAD7 mRNA expression” value in the series with human SMAD7 mRNA [1] (setting [5]) was 0%.

For “771356 (antisense eT*e[5mC]*e[5mC]*eA*eG*dT*dT*d[5mC]*dG*dG*d[5mC]*d[5mC]*dT*dT*d[5mC]*e[5mC]*eA*eT*e[5mC]*e[5mC]) [compound 771356]”, the “% inhibition of SMAD7 mRNA expression” value in the series on human SMAD7 mRNA [1] (electroporation, 15,000 nM, approximately 24 hours, gapmers targeting SEQ ID NO: 3 and 4) stood at 40%.

“771357 (antisense eG*eA*eG*eT*e[5mC]*dA*dG*dG*d[5mC]*dT*d[5mC]*dA*dA*dT*dG*eA*eG*eA*e[5mC]*eT) [compound 771357]”: in the series on human SMAD7 mRNA [1] (setting [5]), the “% inhibition of SMAD7 mRNA expression” value worked out at 16%.

As for “771358 (antisense eA*eG*eT*eT*eA*dA*dT*d[5mC]*dA*dT*dT*dA*d[5mC]*dT*d[5mC]*eG*eA*eG*eT*e[5mC]) [compound 771358]”, the “% Inhibition” value in the series on human SMAD7 mRNA [1] (setting [4]) worked out at 36%. Moreover, in the series on human SMAD7 mRNA [1] (electroporation, 5,000 nM, approximately 24 hours, relative to untreated control cells, gapmers targeting SEQ ID NO: 1 and 2), the “% inhibition of SMAD7 mRNA expression” value turned out to be 53%.

Regarding “830168 (antisense kA*kT*kG*d[5mC]*dT*dT*dT*dT*dA*d[5mC]*dA*d[5mC]*dA*k[5mC]*k[5mC]*k[5mC]) [compound 830168]”, the “% Inhibition” value in the series with human SMAD7 mRNA [2] was 81%. In addition, the “% inhibition of SMAD7 mRNA expression” value in the series with human SMAD7 mRNA [3] (setting [6]) is on record as 31%; with human SMAD7 mRNA [3] (2220 nM, Study 2), 46%; in the series with human SMAD7 mRNA [3] (6670.0 nM, Study 2), 65%; with human SMAD7 mRNA [3] (20000.0 nM, Study 2), 73%. Besides, the IC50 with human SMAD7 mRNA [3] is 3000 nM.

Regarding “830170 (antisense kG*k[5mC]*kT*d[5mC]*dT*dG*dT*dT*dT*dG*dG*dA*d[5mC]*kA*kA*kG) [compound 830170]”, the “% Inhibition” value in the series on human SMAD7 mRNA [2] is 60%. The “% inhibition of SMAD7 mRNA expression” value in the series with human SMAD7 mRNA [3] (setting [6]) is 1%; in the series with human SMAD7 mRNA [3] (2220 nM, Study 2), 39%; in the series on human SMAD7 mRNA [3] (6670.0 nM, Study 2), 54%; with human SMAD7 mRNA [3] (20000.0 nM, Study 2) it was 67%. For the same substance, in the series with human SMAD7 mRNA [3], half-maximal inhibition (IC50) was put at 6000 nM.

In the case of “830180 (antisense k[5mC]*kG*kT*dG*dT*dA*d[5mC]*d[5mC]*d[5mC]*dA*dG*d[5mC]*dT*kG*k[5mC]*k[5mC]) [compound 830180]”, the “% Inhibition” value in the series on human SMAD7 mRNA [2] is reported as 62%. Moreover, the “% inhibition of SMAD7 mRNA expression” value in the series with human SMAD7 mRNA [3] (setting [6]) amounted to 21%; with human SMAD7 mRNA [3] (2220 nM, Study 2), 39%; in the series on human SMAD7 mRNA [3] (6670.0 nM, Study 2), 43%; in the series with human SMAD7 mRNA [3] (20000.0 nM, Study 2), 64%. Further, the 50% inhibitory concentration (IC50) with human SMAD7 mRNA [3] turned out to be 8000 nM.

In the case of “830207 (kA*kG*kG*dT*dG*dA*d[5mC]*dT*d[5mC]*dA*dT*d[5mC]*dA*kG*kG*k[5mC]; antisense) [compound 830207]”, the “% Inhibition” value with human SMAD7 mRNA [2] was 80%. The “% inhibition of SMAD7 mRNA expression” value in the series on human SMAD7 mRNA [3] (setting [6]) is given as 49%; with human SMAD7 mRNA [3] (2220 nM, Study 2), 74%; in the series on human SMAD7 mRNA [3] (6670.0 nM, Study 2), 85%; with human SMAD7 mRNA [3] (20000.0 nM, Study 2), 93%. Moreover, half-maximal inhibition in the series with human SMAD7 mRNA [3] (IC50) required 1000 nM.

For the substance “830208 (kA*kA*kG*dG*dT*dG*dA*d[5mC]*dT*d[5mC]*dA*dT*d[5mC]*kA*kG*kG; antisense) [compound 830208]”, in the series on human SMAD7 mRNA [2], the “% Inhibition” value stood at 57%. For the same substance, the “% inhibition of SMAD7 mRNA expression” value in the series with human SMAD7 mRNA [3] (setting [6]) was found to be 38%; with human SMAD7 mRNA [3] (2220 nM, Study 2), 70%; in the series on human SMAD7 mRNA [3] (6670.0 nM, Study 2), 79%; in the series on human SMAD7 mRNA [3] (20000.0 nM, Study 2), 90%. This substance displayed an IC50 with human SMAD7 mRNA [3] of 1000 nM.
